Results as given in US10894067B2, “Genome stability enhancer” (Yamada Bee Company, Inc., priority 2017, dated 2021).

Tested on: H2AX expression in MEF (mouse embryo fibroblast) cells
Assay: Western analysis of H2AX expression in MEF cells (Test Examples 1-3)
Format: cell-based
Experimental: MEF (mouse embryo fibroblast) cells were cultured at 37° C. in 5% CO2 by the 3T3 method in a 10% FCS (fetal calf serum)-containing DMEM medium to which a 25 μg/ml enzymatically treated RJ or non-treated RJ was added. The cells that were cultured for 0, 3, 6, 12, and 24 hours were harvested, and Western analysis was performed using a H2AX antibody (Bethyl Laboratories, Inc.) and a β-actin antibody (AC-74, Sigma-Aldrich Co. LLC.).
In the same manner as in Test Example 1, the effects of melinjo and trans-resveratrol on H2AX expression were analyzed. In this test example, a 0.26, 0.52, 1.0, or 2.1 w/v % melinjo seed extract or trans-resveratrol was added to a medium, and cells were cultured for 1 hour and harvested.

Oc1ccc(/C=C/c2cc(O)cc(O)c2)cc1 [trans-resveratrol]
Induced transient H2AX expression (Test Example 2, 0.26, 0.52, 1.0 or 2.1 w/v % in medium, cultured 1 hour, FIG. 2): Induced transient H2AX expression was observed
Induced transient H2AX expression (Test Example 3, 2.5 μM (0.52 μg/ml) trans-resveratrol, 0.52 μg/ml melinjo seed extract, 2.5 μM gnetin C, 0-24 hours, FIG. 3): Induced transient H2AX expression was observed
